Patent US12240844B2 (Voronoi, Inc., priority 2019, dated 2025)

Tests used:
[1] = biological target: T1, human GST-DYRK1A (full length) (Homo sapiens, UniProt Q13627); test: GST-DYRK1A enzyme inhibition, ADP-Glo kinase assay; assay type: biochemical; details: read-out: DYRK1 IC50
T1 construct: purified human GST-DYRK1A (full length, Thermo scientifics) enzyme; GST; purchased Thermo scientifics
Method in brief: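 ADP-Glo luminescence quantified kinase activity after a 1 h, 25° C reaction of 10 ng full-length GST-tagged human DYRK1A, substrate and 10 uM ATP in Tris-HCl buffer pH 7.4 with MgCl2, BSA and DTT. Triplicate IC50 values (nM) calculated relative to untreated solvent control.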

[2] = biological target: T2, human GST-CLK1 (129-end) (Homo sapiens, UniProt P49759); test: GST-CLK1 enzyme inhibition, ADP-Glo kinase assay; assay type: biochemical; details: ATP 10 uM
T2 construct: purified human GST-CLK1 (129-end, Signalchem) enzyme; GST; purchased Signalchem
T2 sequence (P49759 129-484 limits assumed): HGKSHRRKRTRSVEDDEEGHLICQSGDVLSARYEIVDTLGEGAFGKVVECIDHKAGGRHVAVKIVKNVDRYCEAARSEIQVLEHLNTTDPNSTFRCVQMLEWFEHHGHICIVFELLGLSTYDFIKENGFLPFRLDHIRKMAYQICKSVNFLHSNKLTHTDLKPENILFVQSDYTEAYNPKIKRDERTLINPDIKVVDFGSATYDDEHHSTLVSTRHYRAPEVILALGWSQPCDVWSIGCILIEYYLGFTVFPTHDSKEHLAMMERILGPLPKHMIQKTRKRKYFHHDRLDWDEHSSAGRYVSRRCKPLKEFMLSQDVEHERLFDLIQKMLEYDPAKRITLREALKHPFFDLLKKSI
Method in brief: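 ADP formation was read by ADP-Glo luminescence after 1 h at 25° C with 3 ng human GST-CLK1 (129-end), substrate and 10 uM ATP in Tris pH 7.4 buffer containing MgCl2, BSA and DTT. Inhibition relative to untreated solvent control gave IC50 (nM), run in triplicate.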

[3] = tested on: IL-6; test: IL-6 secretion inhibition in LPS-treated THP-1 cells (ELISA); assay type: cell-based; details: Homo sapiens, compound 0.5 μM, LPS 500 ng/ml, 24 hours, read-out: THP1/IL6 (% inhib)
Protocol: (§1) In order to evaluate the cytokine secretion inhibitory efficacy of mononuclear cells, THP-1 cells (ATCC, #TIB-202) as a human-derived monocyte cell line were cultured in RPMI-1640 (Hyclone, SH30027.01) media in which 10% fetal bovine serum (Hyclone, SH30084.03), 1% penicillin streptomycin (Welgene, LS202-02) and 50 μM 2-Mercaptoethanol (Gibco, #21985023) were contained. In the test, 1.5-2×10^5 cells/250 μl per each well were dispensed in a 48-well plate (SPL, #30048) and incubated in an incubator at 37° C. and 5% CO2 for 16 hours, and then the compounds were diluted in DMSO so that the final concentration was 0.5 μM. It was treated with Lipopolysaccharides (LPS) (sigma, #L6529) […]. After treatment with the compound, the LPS was treated so that the final concentration was 500 ng/ml, and then the cell culture fluid was collected after culturing for 24 hours, and the degrees of the cytokines IL-6 (R&D system, #D6050) and TNF-α (R&D system, #DTA00D) contained in the culture fluid were collected using each ELISA kit. After performing the experiment according to the manufacturer's instructions, the absorbance at 450 nm was measured and analyzed using a microplate reader.

[4] = tested on: TNF-α; test: TNF-α secretion inhibition in LPS-treated THP-1 cells (ELISA); assay type: cell-based; details: Homo sapiens, compound 0.5 μM, LPS 500 ng/ml, 24 hours, read-out: THP-1/TNF-a (% inhib)
Protocol: as §1

[5] = tested on: THP-1; test: THP-1 GI50 (Table 4, method not given); assay type: cell-based; details: Homo sapiens; THP-1 cells
[6] = biological target: LRRK2 (Homo sapiens, UniProt Q5S007); test: LRRK2 enzyme inhibition, ADP-Glo kinase assay; assay type: biochemical; parameters: purchased Invitrogen PR8604B
Sequence of LRRK2 (Q5S007 970-2527 limits assumed): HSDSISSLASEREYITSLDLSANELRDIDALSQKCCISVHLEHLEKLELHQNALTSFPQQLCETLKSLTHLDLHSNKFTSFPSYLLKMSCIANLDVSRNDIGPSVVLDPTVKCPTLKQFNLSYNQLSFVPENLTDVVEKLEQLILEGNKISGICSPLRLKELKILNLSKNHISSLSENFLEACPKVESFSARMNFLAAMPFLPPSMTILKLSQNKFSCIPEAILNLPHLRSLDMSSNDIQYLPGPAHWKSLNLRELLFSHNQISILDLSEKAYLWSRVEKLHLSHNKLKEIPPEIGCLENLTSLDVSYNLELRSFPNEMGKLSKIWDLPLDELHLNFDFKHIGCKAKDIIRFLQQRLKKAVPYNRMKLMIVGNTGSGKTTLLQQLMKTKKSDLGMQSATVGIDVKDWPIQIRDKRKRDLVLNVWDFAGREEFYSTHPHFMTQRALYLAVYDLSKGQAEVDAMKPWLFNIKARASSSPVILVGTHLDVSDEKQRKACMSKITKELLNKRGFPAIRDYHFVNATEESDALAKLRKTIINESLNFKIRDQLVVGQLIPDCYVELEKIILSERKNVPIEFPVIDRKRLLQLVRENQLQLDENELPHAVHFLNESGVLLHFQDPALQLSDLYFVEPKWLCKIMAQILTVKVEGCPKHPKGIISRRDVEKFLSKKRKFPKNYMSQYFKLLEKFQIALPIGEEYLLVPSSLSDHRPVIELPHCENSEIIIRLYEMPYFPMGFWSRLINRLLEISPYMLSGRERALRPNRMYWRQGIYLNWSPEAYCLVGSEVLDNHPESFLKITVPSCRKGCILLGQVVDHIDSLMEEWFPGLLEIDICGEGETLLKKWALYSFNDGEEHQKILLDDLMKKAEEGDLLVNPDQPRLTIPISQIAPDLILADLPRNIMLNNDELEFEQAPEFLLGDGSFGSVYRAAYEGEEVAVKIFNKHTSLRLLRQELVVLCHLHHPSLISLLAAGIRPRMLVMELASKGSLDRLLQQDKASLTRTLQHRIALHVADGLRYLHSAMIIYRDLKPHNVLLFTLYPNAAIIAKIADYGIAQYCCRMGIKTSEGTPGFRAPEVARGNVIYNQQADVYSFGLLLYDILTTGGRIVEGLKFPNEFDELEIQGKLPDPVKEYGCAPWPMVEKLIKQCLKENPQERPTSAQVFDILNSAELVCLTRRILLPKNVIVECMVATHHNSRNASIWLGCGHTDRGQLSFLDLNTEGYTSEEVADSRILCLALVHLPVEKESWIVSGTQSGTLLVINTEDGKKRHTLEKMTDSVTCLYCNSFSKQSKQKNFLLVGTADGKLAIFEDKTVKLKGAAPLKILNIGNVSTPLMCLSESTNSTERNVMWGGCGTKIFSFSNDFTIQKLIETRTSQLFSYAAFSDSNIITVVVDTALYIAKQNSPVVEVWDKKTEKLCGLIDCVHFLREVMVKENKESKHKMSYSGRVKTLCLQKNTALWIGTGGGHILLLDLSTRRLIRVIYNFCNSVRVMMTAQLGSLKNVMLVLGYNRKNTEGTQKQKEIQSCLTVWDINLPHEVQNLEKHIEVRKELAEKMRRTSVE
Method in brief: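 ADP-Glo luminescence read after 2 h at 25° C, 10 μM ATP, 25 ng purified human LRRK2 and […] substrate in Tris-HCl pH7.4 buffer with MgCl2, BSA, DTT. Twelve final concentrations, 50 μM down to 0.000001024 μM; IC50 (nM) from inhibition relative to untreated solvent control.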

[7] = biological target: LRRK2 (G2019S) (Homo sapiens, UniProt Q5S007, G2019S); test: LRRK2 G2019S enzyme inhibition, ADP-Glo kinase assay; assay type: biochemical; parameters: purchased SignalChem L10-12GG
Sequence of LRRK2 (G2019S) (Q5S007 970-2527 G2019S limits assumed): as the sequence (Q5S007 970-2527 limits assumed) above, with G1050S counted along it
Method in brief: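 Activity read as ADP-Glo luminescence, normalized to untreated solvent control, with IC50 (nM) fitted over 12 final compound levels (top 50 μM). Reaction: 2 h, 25° C, human LRRK2 G2019S 16 ng, ATP 25 μM, substrate 0.2 μg, in Tris-HCl pH 7.4 with MgCl2, BSA and DTT.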

[8] = tested on: MDA-MB-468 cell line; test: MDA-MB-468 cancer cell proliferation inhibition (Cell Titer-Glo); assay type: cell-based; details: Homo sapiens, MDA-MB-468 triple-negative breast cancer cell line, 72 hours
Protocol: In order to evaluate the cancer cell proliferation inhibitory activity of the compounds of the present invention, the following experiments were performed.
To evaluate the cancer cell proliferation inhibitory effect, the cell growth rate analysis was performed while culturing MDA-MB-231 cell line (Korean Cell Line Bank #30026) and MDA-MB-468 cell line as the triple-negative breast cancer cell line, and SHP-77 (ATCC #CRL-2195) as the small cell lung cancer cell line in DMEM (HyClone #SH30243) and RPMI medium (HyClone #SH3027.01), respectively. More specifically, the cell lines were each plated at 2000 cells/100 μl in each well of a 96-well flat-bottom plate (coming #3903), and then the example compounds having eleven concentrations which were diluted by ⅓ so that the final concentrations were 10.000000, 3.333333, 1.111111, 0.370370, 0.123457, 0.041152, 0.013717, 0.004572, 0.001524, 0.000508 and 0.000169 μM were treated. After 72 hours, 100 μl of Cell Titer-Glo (Promega G7573) was treated, incubated at RT for 10 minutes, and then luminescence was measured using a microplate reader. The measured luminescence degree was calculated as GI50 using Prism (version 8.2 GraphPad) software.
In the table below, the following designations were used for the evaluation of proliferation inhibitory activity.

[9] = tested on: MDA-MB-231 cell line; test: MDA-MB-231 cancer cell proliferation inhibition (Cell Titer-Glo); assay type: cell-based; details: Homo sapiens, MDA-MB-231 triple-negative breast cancer cell line, 72 hours
Method in brief: (§2)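 GI50 comes from CellTiter-Glo luminescence, read 10 min after reagent addition at RT, following 72 h compound treatment. Eleven concentrations were used (⅓ steps, highest 10 μM final) on 2000 cells/well. MDA-MB-231 and MDA-MB-468 were grown in DMEM, SHP-77 in RPMI.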

[10] = tested on: SHP-77; test: SHP-77 cancer cell proliferation inhibition (Cell Titer-Glo); assay type: cell-based; details: Homo sapiens, SHP77, SHP-77 small cell lung cancer cell line, 72 hours
Method in brief: as §2

## CCNc1cc(Nc2ccc(C(=O)N3CCOCC3)c3c2OCCO3)nc2[nH]cc(C(F)(F)F)c12 [Example 153, (8-((4-(ethylamino)-3-(trifluoromethyl)-1H-pyrrolo[2,3-b]pyridin-6-yl)amino)-2,3-dihydrobenzo[b] [1,4]dioxin-5-yl)(morpholino) methanone]
[1]
  IC50: < 100 nM
[2]
  IC50: < 100 nM
[3]
  inhibition at 0.5 µM: 32.7%
[4]
  inhibition at 0.5 µM: 40.4%
[5]
  GI50: 14400 nM
[6]
  IC50: < 100 nM
[7]
  IC50: 101 to 300 nM

## COc1cc(S(=O)(=O)N2CCC(N3CCOCC3)CC2)ccc1Nc1cc(NC2CCCCC2)c2c(C#N)c[nH]c2n1 [Example 151, N^4-(cyclohexylamino)-N^6-((2-methoxy-4-((4-morpholinopiperidin-1-yl)sulfonyl)phenyl)amino)-1H-pyrrolo[2,3-b]pyridine-3-carbonitrile]
[1]
  IC50: 301 to 1000 nM
[2]
  IC50: 301 to 1000 nM
[8]
  GI50: 101 to 300 nM
[9]
  GI50: 51 to 100 nM
[10]
  GI50: 51 to 100 nM

## N#Cc1c[nH]c2nc(Nc3ccc(C(=O)N4CCOCC4)c4c3OCCO4)cc(NC3CCCC3)c12 [Example 112, 4-(cyclopentylamino)-6-((8-(morpholine-4-carbonyl)-2,3-dihydrobenzo[b] [1,4]dioxin-5-yl)amino)-1H-pyrrolo[2,3-b]pyridine-3-carbonitrile]
[1]
  IC50: 301 to 1000 nM
[2]
  IC50: 301 to 1000 nM
[8]
  GI50: 51 to 100 nM
[6]
  IC50: < 100 nM
[7]
  IC50: < 100 nM
